± gives the expanded uncertainty stated by the source.

This note sets out measurements from the NIST ThermoML archive (doi:10.1021/je500682v).

Data set [1] in a line: Molar enthalpy of transition or fusion. The settings on record: Crystal; DSC.
The conditions of data set [2]: Crystal; DTA.

As to `O=C(O)CCCC(=O)O` [1,5-pentanedioic acid], the “Molar enthalpy of transition or fusion” value in data set [1] was determined as 5.07 ± 0.287 kcal/mol. Further, the Normal melting temperature in data set [2] stood at 99.10 ± 0.99 °C.
On the same counts, the results for `O=C(O)CCCCC(=O)O` [1,6-hexanedioic acid] are 8.4 ± 0.454 kcal/mol and 152.00 ± 0.99 °C.
The corresponding values for `O=C(O)CCC(=O)O` [butanedioic acid] are 7.82 ± 0.43 kcal/mol and 185.50 ± 0.99 °C.
